In publication PMC8790893 (Chemical Science, 2021):
Read-outs that look alike come from different tables or passages of the source.

Assays:
[1] = target: T1, RORγt-LBD-SRC2.2 (Homo sapiens, UniProt P51449); test: Co-crystallization and X-ray structure determination; details: resolution 1.99 Å
T1 sequence (P51449 with tags, fused parts or gaps): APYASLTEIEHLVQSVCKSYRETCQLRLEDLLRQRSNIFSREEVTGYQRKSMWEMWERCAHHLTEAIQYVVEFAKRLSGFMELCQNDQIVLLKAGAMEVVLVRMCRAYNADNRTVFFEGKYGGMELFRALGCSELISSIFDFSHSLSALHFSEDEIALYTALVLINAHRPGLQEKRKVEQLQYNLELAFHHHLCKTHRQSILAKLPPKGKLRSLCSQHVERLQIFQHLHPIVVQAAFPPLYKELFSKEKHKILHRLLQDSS

[2] = test system: TH17 cells; test: Flow cytometry of spleen cells of EAE mice; type: in vivo; details: CD4 and IL-17 dual-staining
[3] = test system: blood–brain barrier (BBB); test: In vivo imaging of brain inflammation; details: EAE mice, day 9 post-administration
[4] = target: T2, RORγt in HEK293T cells (Homo sapiens, UniProt P51449); test: Cellular thermal shift assay; type: cell-based; details: HEK293T cells exogenously expressing RORγt, 60 μM, 2 h
T2 sequence (P51449 1-497 isoform P51449-2): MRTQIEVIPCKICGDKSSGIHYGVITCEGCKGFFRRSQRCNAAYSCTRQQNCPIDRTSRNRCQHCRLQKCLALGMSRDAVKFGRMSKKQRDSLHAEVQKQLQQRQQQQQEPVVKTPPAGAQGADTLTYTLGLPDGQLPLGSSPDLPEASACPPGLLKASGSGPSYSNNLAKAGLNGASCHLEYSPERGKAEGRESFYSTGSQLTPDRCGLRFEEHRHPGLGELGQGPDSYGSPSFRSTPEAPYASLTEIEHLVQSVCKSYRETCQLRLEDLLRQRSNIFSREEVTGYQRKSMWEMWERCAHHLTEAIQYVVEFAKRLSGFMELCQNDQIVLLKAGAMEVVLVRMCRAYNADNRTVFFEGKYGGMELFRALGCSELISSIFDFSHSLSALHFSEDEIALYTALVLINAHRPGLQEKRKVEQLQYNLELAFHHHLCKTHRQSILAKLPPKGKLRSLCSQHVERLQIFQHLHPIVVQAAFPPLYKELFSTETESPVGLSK

[5] = target: T1, RORγt-LBD-SRC2.2; test: Drug affinity responsive target stability; type: binding; details: 60 μM protein, 40 °C, 10 min, dose-dependent
[6] = target: T3, RORγt-LBD (262-518) (Homo sapiens, UniProt P51449); type: biochemical
T3 sequence (P51449 262-518): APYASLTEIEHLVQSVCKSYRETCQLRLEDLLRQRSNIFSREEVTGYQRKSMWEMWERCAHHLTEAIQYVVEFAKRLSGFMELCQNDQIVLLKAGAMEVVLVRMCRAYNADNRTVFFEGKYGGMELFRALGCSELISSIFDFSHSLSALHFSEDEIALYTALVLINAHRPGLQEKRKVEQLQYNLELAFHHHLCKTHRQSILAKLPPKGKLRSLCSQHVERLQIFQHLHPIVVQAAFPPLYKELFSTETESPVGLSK

[7] = target: T4, RORγt-LBD (Homo sapiens, UniProt P51449); test: Intrinsic fluorescence-quenching based assay; type: binding; details: RORγt-LBD 30 μM; compound 0-50 μM; excitation 280 nm
T4 sequence (P51449 262-518): T3 sequence (P51449 262-518)

[8] = test system: spinal cord white matter; test: Histochemical analysis of spinal cords; type: in vivo; details: EAE mice, 50 mg kg^−1 orally, LFB and H&E staining
[9] = target: T4, RORγt-LBD; test: Isothermal titration calorimetry; type: binding
[10] = test system: experimental autoimmune encephalomyelitis (EAE); test: MOG35-55-induced EAE: clinical signs, disease onset, body weight; type: in vivo, female C57BL/6 mice; details: EAE mice; for EAE induced body weight loss: 50 mg kg^−1 orally every day from day 12; for mean disease onset date: 50 mg kg^−1 orally every day from day 12, n = 8
[11] = test system: IL-17A; test: ELISA of IL-17A in spinal cord and brain supernatant; type: in vivo; details: EAE mice
[12] = target: T5, human RORγt (Homo sapiens, UniProt P51449); test: RORγt-GAL4 dual-luciferase reporter assay; type: cell-based
T5 sequence (P51449 97-516): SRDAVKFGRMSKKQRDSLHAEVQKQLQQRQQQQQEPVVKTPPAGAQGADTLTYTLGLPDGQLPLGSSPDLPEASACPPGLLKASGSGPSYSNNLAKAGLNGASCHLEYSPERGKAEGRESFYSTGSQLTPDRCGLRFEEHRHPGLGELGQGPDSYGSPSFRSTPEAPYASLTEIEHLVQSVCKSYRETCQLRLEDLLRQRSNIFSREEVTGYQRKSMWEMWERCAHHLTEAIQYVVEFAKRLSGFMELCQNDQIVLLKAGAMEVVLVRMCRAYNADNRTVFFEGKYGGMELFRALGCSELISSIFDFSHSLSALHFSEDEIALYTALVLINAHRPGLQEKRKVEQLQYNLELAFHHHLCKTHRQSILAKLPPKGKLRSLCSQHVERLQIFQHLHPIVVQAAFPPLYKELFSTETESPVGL

[13] = test system: prostate cancer; details: cited from earlier work
[14] = test system: DOCA-salt-induced organ damage; details: rats; by blocking the activation of TH17 cells; cited from earlier work
[15] = target: 5-lipoxygenase; details: read-out: IC50, 5-lipoxygenase; cited from earlier work
[16] = test system: AR; details: read-out: IC50 in AR competitive binding assay; cited from earlier work
[17] = test system: AR; details: read-out: IC50 in AR transcriptional assay; cited from earlier work
[18] = target: sigma 1 receptor; details: cited from earlier work

C[C@H]1[C@H](C)CC[C@]2(C(=O)O)CC[C@]3(C)C(=CC[C@@H]4[C@@]5(C)CCC(=O)C(C)(C)[C@@H]5CC[C@]43C)[C@H]12 [ursonic acid, Ursonic Acid]
binding site in the crystal structure (PDB code: 6J3N) [1]: buried in the canonical orthosteric ligand pocket | frequency of pro-inflammatory TH17 cells in the spleen [2]: reduced frequency | EAE-induced BBB disruption (brain BSA-Cy5.5 accumulation) [3]: remitted the EAE-induced BBB disruption obviously | Tm values of RORγt (CETSA) [4]: significantly increased | proteolysis of RORγt-LBD-SRC2.2 by pronase E [5]: clearly decreased | IC50 [6]: 10 nM | fluorescence quenching of RORγt-LBD [7]: dose-dependently induced fluorescence quenching | immune cell infiltrations in white matter of spinal cords [8]: reduced | Kd [9]: 3040 nM | EAE induced body weight loss [10]: significantly reversed | mean disease onset date [10]: 17.3 ± 0.5 days | IL-17A protein expression in brains and spinal cords [11]: effectively reduced | IC50 [12]: 100 nM

CC(=O)S[C@@H]1CC2=CC(=O)CC[C@]2(C)[C@H]2CC[C@@]3(C)[C@@H](CC[C@@]34CCC(=O)O4)[C@H]12 [Spironolactone]
effect on the incidence of prostate cancer [13]: reduce the incidence of prostate cancer | effect on DOCA-salt-induced organ damage [14]: decrease DOCA-salt-induced organ damage

Oc1ccc(/C=C/c2cc(O)cc(O)c2)cc1 [resveratrol]
IC50 [15]: 4900 nM

C[C@]12CC[C@H](O)CC1=CC[C@@H]1[C@@H]2CC[C@]2(C)C(c3cccnc3)=CC[C@@H]12 [abiraterone, Abiraterone]
IC50 [16]: 7600 nM | IC50 [17]: 9400 nM

CCN(CC)CCCC(C)Nc1ccnc2cc(Cl)ccc12 (centres unmarked) [chloroquine]
pKi, sigma 1 receptor [18]: 7.1

Oc1cc(O)cc(/C=C/c2ccc(O)c(O)c2)c1 [piceatannol]
IC50 [15]: 240 nM

CC1(C)CC[C@]2(C(=O)O)CC[C@]3(C)C(=CC[C@@H]4[C@@]5(C)CCC(=O)C(C)(C)[C@@H]5CC[C@]43C)[C@@H]2C1 [oleanonic acid, Oleanonic Acid]
frequency of pro-inflammatory TH17 cells in the spleen [2]: reduced frequency | EAE-induced BBB disruption (brain BSA-Cy5.5 accumulation) [3]: remitted the EAE-induced BBB disruption obviously | Tm values of RORγt (CETSA) [4]: significantly increased | proteolysis of RORγt-LBD-SRC2.2 by pronase E [5]: clearly decreased | IC50 [6]: 280 nM | fluorescence quenching of RORγt-LBD [7]: dose-dependently induced fluorescence quenching | immune cell infiltrations in white matter of spinal cords [8]: reduced | Kd [9]: 1060 nM | EAE induced body weight loss [10]: significantly reversed | mean disease onset date [10]: 15.3 ± 0.2 days | IL-17A protein expression in brains and spinal cords [11]: effectively reduced

CCN(CCO)CCCC(C)Nc1ccnc2cc(Cl)ccc12 (centres unmarked) [hydroxychloroquine]
pKi, sigma 1 receptor [18]: 6.9
